Measurements: patent US20140308317A1, “Polymeric Compounds And Methods Of Making And Using The Same” (CELLCEUTIX CORPORATION, priority 2012, published 2014)
Values after ≈ are worked out from the molar mass of the structure shown.

How the values were obtained:
[1] = tested on: Pseudomonas aeruginosa ATCC 10145; assay: Minimum Inhibitory Concentration (MIC), modified microbroth dilution; assay type: cell-based; conditions: P. aeruginosa (10145); overnight incubation (18 hours)
[2] = tested on: Enterococcus faecalis ATCC 29212; assay: as above; assay type: cell-based; conditions: E. faecalis (29212); overnight incubation (18 hours)
E. Coli ATCC 25922 = assay: as above; assay type: cell-based; conditions: E. coli (25922); overnight incubation (18 hours)
[3] = tested on: Klebsiella pneumoniae ATCC 13883; assay: as above; assay type: cell-based; conditions: K. pneumoniae (13883); overnight incubation (18 hours)
[4] = tested on: Staphylococcus aureus ATCC 27660; assay: as above; assay type: cell-based; conditions: S. aureus (27660); overnight incubation (18 hours)
NIH/3T3 cells, CRL-1658 = assay: Cytotoxicity colorimetric (tetrazolium) assay; assay type: cell-based, mouse; conditions: NIH/3T3 cells; one hour with compound in serum-free media
Experimental: (§1) Cytotoxicity of the compounds was evaluated in a colorimetric assay using a transformed human liver cell line (HepG2, HB-8065) and an embryonic mouse cell line (NIH/3T3 cells, CRL-1658). This assay measures the bioreduction of a novel tetrazolium compound to a soluble formazan product by viable cells. HepG2 cells were seeded in 96 well plates at 2×10^4 cells/well in MEM medium with 10% fetal bovine serum (FBS) 24 hours prior to use. NIH/3T3 cells were seeded in 96 well plates at 2×10^4 cells/well in DMEM medium with 10% bovine calf serum (BCS) 24 hours prior to use. Cell monolayers were rinsed in serum-free media and incubated for one hour with compounds in serum-free media. After incubation, the media is replaced with serum supplemented media and live cells were measured using the Cell Titer 96 Aqueous […] Assay kit (Promega, Madison, Wis.). EC50 values were determined using a four parameter logistic equation: Y=Bottom+(Top-Bottom)/(1+10̂((LogEC50−X)*HillSlope)).
(§2) Actual results from a representative cytotoxicity assay are shown below in Table 2. Data is expressed as EC50 in μg/mL.

HepG2, HB-8065 = assay: Cytotoxicity colorimetric (tetrazolium) assay; assay type: cell-based, human; conditions: HepG2 cells; one hour with compound in serum-free media
Experimental: as §1, §2

SMILES | MIC50 P. Aeruginosa [1] [µg/mL] | MIC50 E. faecalis [2] [µg/mL] | MIC50 E. coli (E. Coli ATCC 25922) [µg/mL] | MIC50 K. Pnuemnoiae [3] [µg/mL] | MIC50 S. aureus [4] [µg/mL] | EC50 NIH 3T3 (cytotoxicity) (NIH/3T3 cells, CRL-1658) [µg/mL] | EC50 HepG2 (cytotoxicity) (HepG2, HB-8065) [µg/mL]
NCCN(CCN)Cc1cccc(-c2ccc3[nH]c4ccc(-c5cccc(CN(CCN)CCN)c5)cc4c3c2)c1 [Compound 179] | 25 (≈ 45.5 µM) | >50 | 1.56 (≈ 2.84 µM) | >50 | 1.56 (≈ 2.84 µM) | 179 (≈ 326 µM) | 615 (≈ 1120 µM)
NCCCOc1cc(OCCCN)cc(-c2cc(F)cc(-c3cc(F)cc(-c4cc(OCCCN)cc(OCCCN)c4)c3)c2)c1 [Compound 148] | 3.13 (≈ 4.93 µM) | 0.78 (≈ 1.23 µM) | 1.56 (≈ 2.46 µM) | 1.56 (≈ 2.46 µM) | 0.39 (≈ 0.614 µM) | 53.77 (≈ 84.7 µM) | 244 (≈ 384 µM)
NCCCOc1cc(OCCCN)cc(-c2ccc(F)c(-c3cc(-c4cc(OCCCN)cc(OCCCN)c4)ccc3F)c2)c1 [Compound 145] | 12.5 (≈ 19.7 µM) | 0.78 to 1.56 | 1.56 to 3.13 | 1.56 to 3.13 | 1.56 (≈ 2.46 µM) | 146.3 (≈ 230 µM) | 302 (≈ 476 µM)
NCCN(CCN)Cc1cccc(-c2ccc3sc4ccc(-c5cccc(CN(CCN)CCN)c5)cc4c3c2)c1 [Compound 174] | 3.13 (≈ 5.52 µM) | 3.13 (≈ 5.52 µM) | 3.13 (≈ 5.52 µM) | 3.13 (≈ 5.52 µM) | 0.195 (≈ 0.344 µM) | 149 (≈ 263 µM) | 171 (≈ 302 µM)
NCCCNC(=O)c1cc(C(=O)NCCCN)cc(-c2ccc3sc4ccc(-c5cc(C(=O)NCCCN)cc(C(=O)NCCCN)c5)cc4c3c2)c1 [Compound 171] | >100 | >100 | >100 | >100 | 6.25 (≈ 8.48 µM) | 46.5 (≈ 63.1 µM) | 236 (≈ 320 µM)
Cc1cc(-c2cc(OCCCN)cc(OCCCN)c2)cc(-c2cc(C)cc(-c3cc(OCCCN)cc(OCCCN)c3)c2)c1 [Compound 147] | 6.25 (≈ 9.97 µM) | 0.78 (≈ 1.24 µM) | 1.56 (≈ 2.49 µM) | 1.56 (≈ 2.49 µM) | 0.39 (≈ 0.622 µM) | 50.94 (≈ 81.3 µM) | 164 (≈ 262 µM)
Cc1cc(-c2cc(OCCCN)cc(OCCCN)c2)cc(-c2cc(-c3cc(OCCCN)cc(OCCCN)c3)cc(C)c2F)c1F [Compound 149] | 6.25 (≈ 9.43 µM) | 1.56 (≈ 2.35 µM) | 3.13 (≈ 4.72 µM) | 3.13 (≈ 4.72 µM) | 0.78 (≈ 1.18 µM) | 59.19 (≈ 89.3 µM) | 98.5 (≈ 149 µM)
NCCc1cccc(-c2ccc3c(c2)C(=O)c2cc(-c4cccc(CCN)c4)cc(-c4cccc(CCN)c4)c2CC3)c1 [Compound 154] | 6.25 (≈ 11 µM) | 6.25 (≈ 11 µM) | 1.56 (≈ 2.76 µM) | 6.25 (≈ 11 µM) | 0.78 (≈ 1.38 µM) | 53.4 (≈ 94.4 µM) | 85.4 (≈ 151 µM)
O=C(Nc1ccc(-c2ccnc(N3CCNCC3)c2)cc1F)Nc1ccc(-c2ccnc(N3CCNCC3)c2)cc1F [Compound 142] | 25 (≈ 43.8 µM) | – | 12.5 (≈ 21.9 µM) | 25 (≈ 43.8 µM) | 100 (≈ 175 µM) | – | 105 (≈ 184 µM)
NCCNC(=O)c1cc(C(=O)NCCN)cc(-c2ccc3oc4ccc(-c5cc(C(=O)NCCN)cc(C(=O)NCCN)c5)cc4c3c2)c1 [Compound 168] | >50 | >50 | >50 | >50 | 3.13 (≈ 4.71 µM) | 32.4 (≈ 48.7 µM) | 72.6 (≈ 109 µM)
NCCCN(CCCN)Cc1cccc(-c2ccc3sc4ccc(-c5cccc(CN(CCCN)CCCN)c5)cc4c3c2)c1 [Compound 181] | 6.25 (≈ 10 µM) | 6.25 (≈ 10 µM) | 3.13 (≈ 5.02 µM) | 6.25 (≈ 10 µM) | 0.195 (≈ 0.313 µM) | 83.1 (≈ 133 µM) | 212 (≈ 340 µM)
c1cc(CN2CCNCC2)cc(-c2ccc3sc4ccc(-c5cccc(CN6CCNCC6)c5)cc4c3c2)c1 [Compound 175] | 25 (≈ 46.9 µM) | 12.5 (≈ 23.5 µM) | 6.25 (≈ 11.7 µM) | 12.5 (≈ 23.5 µM) | 0.39 (≈ 0.732 µM) | 19.9 (≈ 37.4 µM) | 19.4 (≈ 36.4 µM)
N=C(N)NCC#Cc1cc(C#CCNC(=N)N)cc(-c2cc(-c3cc(C#CCNC(=N)N)cc(C#CCNC(=N)N)c3)cc(C(F)(F)F)c2)c1 [Compound 126] | 6.25 (≈ 9.21 µM) | 1.56 (≈ 2.3 µM) | 6.25 (≈ 9.21 µM) | 6.25 (≈ 9.21 µM) | 1.56 (≈ 2.3 µM) | 59.7 (≈ 88 µM) | –
NCC#Cc1cc(C#CCN)cc(-c2cc(-c3cc(C#CCN)cc(C#CCN)c3)cc(C(F)(F)F)c2)c1 [Compound 125] | 12.5 (≈ 24.5 µM) | 12.5 (≈ 24.5 µM) | 12.5 (≈ 24.5 µM) | 25 (≈ 49 µM) | 12.5 (≈ 24.5 µM) | 26.1 (≈ 51.1 µM) | –
NCCCOc1cc(-c2ccc3sc4ccc(-c5cc(OCCCN)c(OCCCN)c(OCCCN)c5)cc4c3c2)cc(OCCCN)c1OCCCN [Compound 184] | 6.25 (≈ 8.06 µM) | 6.25 (≈ 8.06 µM) | 6.25 (≈ 8.06 µM) | 12.5 (≈ 16.1 µM) | 1.56 (≈ 2.01 µM) | 57 (≈ 73.5 µM) | 100 (≈ 129 µM)
NCCc1cccc(-c2ccc3c(c2)C(=O)c2cc(-c4cccc(CCN)c4)ccc2CC3)c1 [Compound 153] | 25 (≈ 56 µM) | 3.13 (≈ 7.01 µM) | 6.25 (≈ 14 µM) | 6.25 (≈ 14 µM) | 1.56 (≈ 3.49 µM) | 53.3 (≈ 119 µM) | 80.6 (≈ 180 µM)
CCn1c2ccc(-c3cc(C(=O)NCCN)cc(C(=O)NCCN)c3)cc2c2cc(-c3cc(C(=O)NCCN)cc(C(=O)NCCN)c3)ccc21 [Compound 169] | >50 | >50 | 25 (≈ 36.1 µM) | >50 | 3.13 (≈ 4.52 µM) | 450 (≈ 650 µM) | 312 (≈ 451 µM)
NCCN(CCN)Cc1ccc(F)c(-c2ccc3sc4ccc(-c5cc(CN(CCN)CCN)ccc5F)cc4c3c2)c1 [Compound 180] | 3.13 (≈ 5.19 µM) | 3.13 (≈ 5.19 µM) | 1.56 (≈ 2.59 µM) | 1.56 (≈ 2.59 µM) | 0.098 (≈ 0.163 µM) | 43.1 (≈ 71.5 µM) | 104 (≈ 173 µM)
N=C(N)NCCc1cc(CCNC(=N)N)cc(-c2cc(F)cc(-c3cc(F)cc(-c4cc(CCNC(=N)N)cc(CCNC(=N)N)c4)c3)c2)c1 [Compound 151] | 12.5 (≈ 18.3 µM) | 1.56 (≈ 2.28 µM) | 1.56 (≈ 2.28 µM) | 3.13 (≈ 4.58 µM) | 0.78 (≈ 1.14 µM) | 72.14 (≈ 106 µM) | 254 (≈ 372 µM)
N=C(N)NCCCc1cccc(-c2cc(-c3cccc(CCCNC(=N)N)c3)cc(C(F)(F)F)c2)c1 [Compound 114] | 12.5 (≈ 25.2 µM) | 1.56 (≈ 3.14 µM) | 3.13 (≈ 6.3 µM) | 3.13 (≈ 6.3 µM) | 0.78 (≈ 1.57 µM) | 83.5 (≈ 168 µM) | 60.6 (≈ 122 µM)
NCCCOc1cc(OCCCN)cc(-c2cc(-c3cc(-c4cc(OCCCN)cc(OCCCN)c4)cc(C(F)(F)F)c3)cc(C(F)(F)F)c2)c1 [Compound 146] | 6.25 (≈ 8.51 µM) | 0.78 to 1.56 | 1.56 to 3.13 | 1.56 to 3.13 | 1.56 (≈ 2.12 µM) | 35.82 (≈ 48.7 µM) | 58.6 (≈ 79.8 µM)
NCCC#Cc1cc(-c2cc(OCCCN)cc(-c3cc(C#CCCN)cc(C(F)(F)F)c3)c2)cc(C(F)(F)F)c1 [Compound 122] | 12.5 (≈ 21.8 µM) | 1.56 (≈ 2.72 µM) | 3.13 (≈ 5.46 µM) | 3.13 (≈ 5.46 µM) | 1.56 (≈ 2.72 µM) | 14.5 (≈ 25.3 µM) | –
